From patent US6632816B1, “Aromatic derivatives as HIV aspartyl protease inhibitors” (Pharmacor Inc., priority 2002, dated 2003)
Like-named read-outs stand apart in the source and are kept apart here.

Key:
[1] = tested on: HIV-1 laboratory viral strain NL4.3 (wild type virus); test: Anti-viral assay in vitro (MTT, infected MT-4 cells); assay type: cell-based
Method: Anti-viral and Cytotoxicity Assays In Vitro
To evaluate the EC50 of our compounds, various drug concentrations are incubated with the infected cell for six days and then the metabolic activity of the cells is monitored by the MTT assay. (See A. J. Japour et al, Antimicrobial Agents and Chemotherapy, 37, 1095-1101, 1993 and R. Pauwels et al. Journal of Virological Methods, 20, 309-321, 1988)
We use the laboratory viral strain NL4.3 as wild type virus and the cell line used is MT-4 which is a T-cell line highly sensitive to HIV-1. We also use some WT clinical strains. To address the resistance issue we assay the inhibitors with NL4.3 mutants which are designed to be resistant to specific commercially,available inhibitors

HIV protease [2] = molecular target: T1, HIV protease (Human immunodeficiency virus type 1 group M subtype B, UniProt P04585); details: FRET assay, Henderson equation
Excerpt: (§1) Enzymatic Assay for Determining the Inhibition Constant (Ki) of Synthetic Compounds Targeting the HIV Protease
(§2) This is a fluorometric assay based on the cleavage by protease of a substrate carrying a donor group (EDANS) and an acceptor group (DABCYL) on each side of the cleavage site, interacting together through fluorescence resonance energy transfer (FRET) as described by Matayoshi et al. (Science 247:954-954, 1990).
(§3) After calculation of Vo and Vi, the inhibition constant (Ki) of the compound is determined using the equation of Henderson: [formula]
where Vo=the enzyme's initial velocity
(§4) Vi=the enzyme velocity in the presence of the inhibitory compound,
(§5) [I]=inhibitor concentration, [S]=substrate concentration,
(§6) Km=Michaelis-Menten constant and Kiapp=apparent Ki
(§7) Graphs are traced and the Ki determined using GraphPad Prism software v.

HIV protease [3] = molecular target: T1, HIV protease; test: biochemical
Excerpt: as §1, §2, §3
where Vo=the enzyme's initial velocity
as §4, §5, §6, §7

[4] = Human immunodeficiency virus 1, MT4, 144 h, MT-4 cells infected with NL4.3, six days, MTT assay, read-out: EC50

Compound | EC50 ([1]; MT-4 cells infected with NL4.3, six days, MTT assay, read-out: EC50) | Ki (HIV protease [2]) | Ki (HIV protease [3]) | EC50 [1, 4] | EC50 ([1]; Human immunodeficiency virus 1, MT4, 144 h)
COC(=O)N[C@@H](Cc1ccccc1-c1ccccc1)C(=O)NCCCCC(CO)N(CC(C)C)S(=O)(=O)c1ccc(N)cc1 (stereo partly drawn) [Example 30, (1S,5R,S)-(1-{5-[(4-Amino-benzenesulfonyl)-isobutyl-amino]-6-hydroxy-hexylcarbamoyl}-2-biphenyl-2-yl-ethyl)-carbamic Acid Methyl Ester] | 344 nM | 1.4 nM | – | – | –
CC(C)CN([C@H](CO)CCCCNC(=O)[C@H](Cc1ccc2ccccc2c1)NC(=O)c1ccncc1)S(=O)(=O)c1ccc(N)cc1 [Example 55, (1S,5S)-N-(1-{5-[(4-Amino-benzenesulfonyl)-isobutyl-amino]-6-hydroxy-hexylcarbamoyl}-2-naphthalen-2-yl-ethyl)-isonicotinamide] | – | – | 1.3 nM | 110 nM | –
CC(C)CN([C@H](CO)CCCCNC(=O)[C@@H](NC(=O)c1cccnc1)C(c1ccccc1)c1ccccc1)S(=O)(=O)c1ccc(N)cc1 [Example 73, (1S,5S)-N-(1-{5-[(4-Amino-benzenesulfonyl)-isobutyl-amino]-6-hydroxy-hexylcarbamoyl}-2,2-diphenyl-ethyl)-nicotinamide] | – | – | 0.681 nM | 39 nM | –
COc1ccc(S(=O)(=O)N(CC(C)C)[C@H](CO)CCCCNC(=O)[C@H](Cc2ccc3ccccc3c2)NC(=O)N2CCOCC2)cc1 [Example 35, (1S,5S)-Morpholine-4-carboxylic Acid (1-{6-Hydroxy-5-[isobutyl-(4-methoxy-benzenesulfonyl)-amino]-hexylcarbamoyl}-2-naphthalen-2-yl-ethyl)-amide] | – | – | 1.3 nM | – | 275 nM
CC(C)CN([C@H](CO)CCCCNC(=O)[C@H](Cc1ccc2ccccc2c1)NC(=O)N(C)C)S(=O)(=O)c1ccc(N)cc1 [Example 41, (2S,5S)-N-{5-[(4-Amino-benzenesulfonyl)-isobutyl-amino]-6-hydroxy-hexyl}-2-(3,3-dimethyl-ureido)-3-naphthalen-2-yl-propionamide] | – | – | 1.1 nM | 79 nM | –
CC(C)CN([C@H](CO)CCCCNC(=O)[C@H](Cc1cccc2ccccc12)NC(=O)N1CCOCC1)S(=O)(=O)c1ccc(F)c(N)c1 [Example 53, (1S,5S)-Morpholine-4-carboxylic Acid (1-{5-[(3-Amino-4-fluoro-benzenesulfonyl)-isobutyl-amino]-6-hydroxy-hexylcarbamoyl}-2-naphthalen-1-yl-ethyl)-amide] | – | – | 0.626 nM | 40 nM | –
CC(C)CN([C@H](CO)CCCNC(=O)[C@@H](NC(=O)N1CCOCC1)C(c1ccccc1)c1ccccc1)S(=O)(=O)c1ccc(N)cc1 [Example 9, (1S,4S)-Morpholine-4-carboxylic Acid (1-{4-[(4-Amino-benzenesulfonyl)-isobutyl-amino]-5-hydroxy-pentylcarbamoyl}-2,2-diphenyl-ethyl)-amide] | – | – | 4.2 nM | 1300 nM | –
CC(C)CN([C@H](CO)CCCCNC(=O)[C@H](Cc1ccc2ccccc2c1)NC(=O)N1CCOCC1)S(=O)(=O)c1ccc(N)cc1 [Example 33, (1S,5S)-Morpholine-4-carboxylic Acid (1-{5-[(4-Amino-benzenesulfonyl)-isobutyl-amino]-6-hydroxy-hexylcarbamoyl}-2-naphthalen-2-yl-ethyl)-amide] | – | – | 0.8 nM | 92 nM | –
CC(C)CN([C@H](CO)CCCCNC(=O)[C@@H](NC(=O)C1CCCCC1)C(c1ccccc1)c1ccccc1)S(=O)(=O)c1ccc(N)cc1 [Example 76, (1S,5S)-Cyclohexanecarboxylic Acid (1-{5-[(4-Amino-benzenesulfonyl)-isobutyl-amino]-6-hydroxy-hexylcarbamoyl}-2,2-diphenyl-ethyl)-amide] | – | – | < 3.8 nM | 93 nM | –
CC(C)CN([C@H](CO)CCCCNC(=O)[C@H](Cc1ccc2ccccc2c1)NC(=O)C(C)(C)C)S(=O)(=O)c1ccc(N)cc1 [Example 46, (1S,5S)-N-(1-{5-[(4-Amino-benzenesulfonyl)-isobutyl-amino]-6-hydroxy-hexylcarbamoyl}-2-naphthalen-2-yl-ethyl)-2,2-dimethyl-propionamide] | – | – | 0.809 nM | 167 nM | –
CC(C)CN([C@H](CO)CCCCNC(=O)[C@H](Cc1cccc2ccccc12)NC(=O)N1CCOCC1)S(=O)(=O)c1ccc(N)c(Cl)c1 [Example 44, (1S,5S)-Morpholine-4-carboxylic Acid (1-{5-[(4-Amino-3-chloro-benzenesulfonyl)-isobutyl-amino]-6-hydroxy-hexylcarbamoyl}-2-naphthalen-1-yl-ethyl)-amide] | – | – | 0.904 nM | 134 nM | –
